The values below are quoted from earlier work in US20090087487A1, “Paliperidone sustained release formulation” (priority 2007, published 2009).

For the compound `Cc1nc2n(c(=O)c1CCN1CCC(c3noc4cc(F)ccc34)CC1)CCCC2O` (stereo not shown) [Paliperidone, 4H-Pyrido[1,2-a]pyrimidin-4-one, 3-[2-[4-(6-fluoro-1,2-benzisoxazol-3-yl)-1-piperidinyl]ethyl]-6,7,8,9-tetrahydro-9-hydroxy-2-methyl], the “solubility in 0.1 N hydrochloric acid” value (0.1 N hydrochloric acid) is on record as “soluble”. Also, under “methanol”, the solubility in methanol result is on record as “soluble”. In addition, where the note is “methylene chloride”, the “solubility in methylene chloride” value is given as “freely soluble”. Also, the solubility in water result (water) is reported as “practically insoluble”.
